The results in this text go back to patent US20260083704A1, “LXR MODULATORS WITH BICYCLIC CORE MOIETY FOR TREATING DYSLIPIDEMIAS” (OrsoBio, Inc., priority 2022, published 2026).

The target of test [1] is T1, GST-LXRβ ligand-binding domain (Homo sapiens, UniProt P55055).
T1 construct: amino acids 156-461; NP009052; made in house; host or cells: E. coli
T1 sequence (P55055 156-460 limits assumed): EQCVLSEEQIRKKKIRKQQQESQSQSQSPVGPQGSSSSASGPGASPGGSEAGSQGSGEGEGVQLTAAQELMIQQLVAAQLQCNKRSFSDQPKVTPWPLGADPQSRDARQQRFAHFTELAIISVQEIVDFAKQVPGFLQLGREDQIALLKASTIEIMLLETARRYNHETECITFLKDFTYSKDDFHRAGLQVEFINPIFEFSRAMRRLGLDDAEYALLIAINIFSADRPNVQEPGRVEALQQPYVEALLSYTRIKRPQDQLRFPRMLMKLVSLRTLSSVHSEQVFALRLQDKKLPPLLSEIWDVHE
As to the kind of experiment: TR-FRETβ activity assay (NCoA3 coactivator peptide recruitment). The test is classed as biochemical. The note with it: 1 μM 24(S)-25-epoxycholesterol prestimulation. The gist of the method:
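Inverse-agonist format, with LXR prestimulated by 1 μM 24(S)-25-epoxycholesterol in pH 6.8 Tris/HCl, 240 mM KCl, BSA and Triton. Ten concentrations from 50 μM to 0.002 μM were equilibrated 1 h at 4° C with 76 nM GST-LXRβ LBD and 400 nM biotin-NCoA3 peptide. Peptide recruitment detected by 665/615 nm TR-FRET.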

Test [2] deals with LXR target genes (Scd1, Fas, Srebp1) in liver. As to the kind of experiment: Short term HFD mouse model: gene expression in liver tissue. In kind it is in vivo. The following applies: HFD mice, expression normalized to Tbp; for response vs control in vivo at 20 mg/kg / response vs control in vivo at 10 mg/kg: Mus musculus, 4 h, read-out: Scd1 suppresion compared to vehicle. The method, then: The in vivo transcriptional regulation of several LXR target genes by LXR modulators was assessed in mice.
For this, C57BL/6J were purchased from Elevage Janvier (Rennes, France) at the age of 8 weeks. After an acclimation period of two weeks, animals were prefed on a high fat diet (HFD) (Ssniff Spezialdiäten GmbH, Germany, Surwit EF D12330 mod, Cat. No. E15771-34), with 60 kcal % from fat plus 1% (w/w) extra cholesterol (Sigma-Aldrich, St. Louis, MO) for 5 days. Animals were maintained on this diet during treatment with LXR modulators. The test compounds were formulated in 0.5% hydroxypropylmethylcellulose (HPMC) and administered in three doses (from 1.5 to 20 mg/kg each) by oral gavage according to the following schedule: on day one, animals received treatment in the morning and the evening (ca. 17:00), on day two animals received the final treatment in the morning after a 4 h fast and were sacrificed 4 h thereafter. Animal work was conducted according to the national guidelines for animal care in Germany.
Analysis of gene expression in liver tissue. To obtain total RNA from frozen liver tissue, samples (25 mg liver tissue) were first homogenized with RLA buffer (4M guanidin thiocyanate, 10 mM Tris, 0.97% w:v β-mercapto-ethanol). RNA was prepared using a SV 96 total RNA Isolation system (Promega, Madison, Wisconsin, USA) following the manufacturer's instructions. cDNAs were synthesized from 0.8-1 μg of total RNA using All-in-One cDNA Supermix reverse transcriptase (Absource Diagnostics, Munich, Germany). Quantitative PCR was performed and analyzed using Prime time Gene expression master mix (Integrated DNA Technologies, Coralville, Iowa, USA) and a 384-format ABI 7900HT Sequence Detection System (Applied Biosystems, Foster City, USA). The expression of the following genes was analysed: Stearoyl-CoA desaturase1 (Scd1), fatty acid synthase (Fas) and sterol regulatory element-binding protein1 (Srebp1). Specific primer and probe sequences (commercially available) are listed in Table 3. qPCR was conducted at 95° C. for 3 min, followed by 40 cycles of 95° C. for 15 s and 60° C. for 30 s. All samples were run in duplicates from the same RT-reaction. Gene expression was expressed in arbitrary units and normalized relative to the mRNA of the housekeeping gene TATA box binding protein (Tbp) using the comparative Ct method.

SMILES strings stand for the structures.

As usually defined, the EC50 is the concentration at which the effect is half-maximal. Read a high EC50 as lower potency in that assay. `O=C(O)c1ccc(-c2cccc(-c3c(-c4ccccc4C4COC4)c4cc(F)ccc4n3S(=O)(=O)c3ccc(C(F)F)cc3)c2)c(Cl)c1` [3/59] returned an EC50 in test [1] of less than 100 nM. Further, in test [2] (three oral doses of 20 mg/kg), the “Srebp1c suppr. compared to vehicle” value was “D (<0.3)” and the response vs control in vivo at 20 mg/kg was in the range of 30 to 60%.
As to `Cc1ccc(S(=O)(=O)n2c(-c3cccc(C45CCC(C(=O)O)(CC4)CC5)c3)c(-c3ccsc3C#N)c3cc(F)ccc32)cc1` [3/64], the EC50 in test [1] was in the range of 100 to 1000 nM. In test [2] (three oral doses of 20 mg/kg), the “Fasn suppression compared to vehicle” value is on record as “B (0.6 to ≤0.9)”, the “Srebp1c suppr. compared to vehicle” value is “B (0.6 to ≤0.9)” and the response vs control in vivo at 20 mg/kg is less than 30%.
For the compound `N#Cc1cccc(C#N)c1-c1c(-c2cccc(-c3c(F)cc(CC(=O)O)cc3F)c2)n(S(=O)(=O)c2ccc(C(F)F)cc2)c2ccc(F)cc12` [3/73], the EC50 in test [1] is less than 100 nM. Besides, in test [2] (three oral doses of 10 mg/kg), the “Fasn suppression compared to vehicle” value was “A (>0.9)” and the response vs control in vivo at 10 mg/kg is less than 30%.
For the compound `CC(=O)NS(=O)(=O)c1ccc(-c2cccc(-c3c(-c4c(C#N)cccc4C#N)c4cc(F)ccc4n3S(=O)(=O)c3ccc(C(F)F)cc3)c2)c(Cl)c1` [8/8], the EC50 in test [1] is less than 100 nM. Moreover, in test [2] (three oral doses of 10 mg/kg), the “Srebp1c suppr. compared to vehicle” value was “D (<0.3)” and the response vs control in vivo at 10 mg/kg is less than 30%.
Taken in the same sequence, the figures for `N#Cc1cccc(C#N)c1-c1c(-c2cccc(-c3ccc(C(=O)NCCS(=O)(=O)O)cc3Cl)c2)n(S(=O)(=O)c2ccc(C(F)F)cc2)c2ccc(F)cc12` [10/1] were less than 100 nM, “D (<0.3)” and less than 30%.
For `CN(CCS(=O)(=O)O)C(=O)c1ccc(-c2cccc(-c3c(-c4c(C#N)cccc4C#N)c4cc(F)ccc4n3S(=O)(=O)c3ccc(C(F)F)cc3)c2)c(Cl)c1` [10/2], in that order: less than 100 nM, “C (0.3 to ≤0.6)” and 30 to 60%.
Consider `N#Cc1nccnc1-c1c(-c2cccc(-c3cc(F)c(C(=O)O)cc3Cl)c2)n(S(=O)(=O)c2ccc(C(F)F)cc2)c2ccc(F)cc12` [11/11], for which the EC50 in test [1] is less than 100 nM. In test [2] (three oral doses of 20 mg/kg), the “Fasn suppression compared to vehicle” value was “C (0.3 to ≤0.6)” and the response vs control in vivo at 20 mg/kg was less than 30%.
Taken in the same sequence, the figures for `N#Cc1cccc(C#N)c1-c1c(-c2cccc(-c3ccc(C(=O)O)cc3Cl)c2)n(S(=O)(=O)c2ccc(C(F)F)cc2)c2ccc(F)cc12` [11/12] were less than 100 nM, “C (0.3 to ≤0.6)” and less than 30%.
Take `O=C(O)c1ccc(-c2cccc(-c3c(-c4c(Cl)cccc4Cl)c4cc(F)ccc4n3S(=O)(=O)c3ccc(C(F)F)cc3)c2)c(Cl)c1` [11/13]: the EC50 in test [1] is less than 100 nM. Further, in test [2] (three oral doses of 20 mg/kg), the “Fasn suppression compared to vehicle” value is “C (0.3 to ≤0.6)” and the response vs control in vivo at 20 mg/kg was less than 30%.
On to `N#Cc1sccc1-c1c(-c2cccc(-c3ccc(C(=O)O)cc3Cl)c2)n(S(=O)(=O)c2ccc(C(F)(F)F)nc2)c2ccc(F)cc12` [11/16], for which the EC50 in test [1] fell in the range of 100 to 1000 nM. In test [2] (three oral doses of 20 mg/kg), the “Fasn suppression compared to vehicle” value is reported as “A (>0.9)”, the “Srebp1c suppr. compared to vehicle” value is “B (0.6 to ≤0.9)” and the response vs control in vivo at 20 mg/kg fell in the range of 30 to 60%.
In the case of `N#Cc1sccc1-c1c(-c2cccc(-c3ccc(C(=O)O)cc3Cl)c2)n(S(=O)(=O)c2ccc(C(F)F)cc2)c2ccc(F)cc12` [11/17], in test [1], the EC50 was less than 100 nM. Moreover, in test [2] (three oral doses of 20 mg/kg), the “Fasn suppression compared to vehicle” value was “C (0.3 to ≤0.6)” and the response vs control in vivo at 20 mg/kg was less than 30%.
For `O=C(O)c1ccc(-c2cccc(-c3c(-c4ncccc4C(F)(F)F)c4cc(F)ccc4n3S(=O)(=O)c3ccc(C(F)F)cc3)c2)c(Cl)c1` [11/23], in that order: less than 100 nM, “C (0.3 to ≤0.6)” and less than 30%.
Turning to `N#Cc1cccnc1-c1c(-c2cccc(-c3ccc(C(=O)O)cc3Cl)c2)n(S(=O)(=O)c2ccc(C(F)F)cc2)c2ccc(F)cc12` [11/26], the EC50 in test [1] is less than 100 nM. In test [2] (three oral doses of 10 mg/kg), the “Fasn suppression compared to vehicle” value was “D (<0.3)”, the “Srebp1c suppr. compared to vehicle” value is on record as “D (<0.3)” and the response vs control in vivo at 10 mg/kg was 30 to 60%.
In turn, `COc1c(C(=O)O)ccc(-c2cccc(-c3c(-c4ccccc4C#N)c4cc(F)ccc4n3S(=O)(=O)c3ccc(C(F)F)cc3)c2)c1Cl` [11/27] gave an EC50 in test [1] of less than 100 nM. In test [2] (three oral doses of 20 mg/kg), the “Fasn suppression compared to vehicle” value is “C (0.3 to ≤0.6)”, the “Srebp1c suppr. compared to vehicle” value is given as “A (>0.9)” and the response vs control in vivo at 20 mg/kg is less than 30%.
`N#Cc1ccccc1-c1c(-c2cccc(-c3ccc(C(=O)O)cc3Cl)c2)n(S(=O)(=O)c2ccc(C(F)F)cc2)c2ccc(F)cc12` [11/33]: the EC50 in test [1] is less than 100 nM. For the same compound, in test [2] (three oral doses of 20 mg/kg), the “Fasn suppression compared to vehicle” value is given as “B (0.6 to ≤0.9)” and the response vs control in vivo at 20 mg/kg was less than 30%.
`N#Cc1cccc(C#N)c1-c1c(-c2cccc(-c3ccc(C(=O)O)cc3Cl)c2)n(S(=O)(=O)c2ccc(C(F)(F)F)nc2)c2ccc(F)cc12` [11/37] yielded an EC50 in test [1] of less than 100 nM. For the same compound, in test [2] (three oral doses of 10 mg/kg), the “Srebp1c suppr. compared to vehicle” value is on record as “D (<0.3)” and the response vs control in vivo at 10 mg/kg is less than 30%.
Compound `N#Cc1ccccc1-c1c(-c2cccc(-c3ccc(C(=O)O)cc3Cl)c2)n(S(=O)(=O)c2ccc(C(F)F)cc2)c2cnccc12` [11/49] registered an EC50 in test [1] of less than 100 nM. In addition, in test [2] (three oral doses of 20 mg/kg), the “Fasn suppression compared to vehicle” value is on record as “C (0.3 to ≤0.6)”, the “Srebp1c suppr. compared to vehicle” value is reported as “C (0.3 to ≤0.6)” and the response vs control in vivo at 20 mg/kg was less than 30%.
`N#Cc1cccc(C#N)c1-c1c(-c2cccc(-c3ccc(C(=O)O)cc3F)c2)n(S(=O)(=O)c2ccc(C(F)F)cc2)c2ccc(F)cc12` [11/51]: the EC50 in test [1] was less than 100 nM. In test [2] (three oral doses of 10 mg/kg), the “Srebp1c suppr. compared to vehicle” value is recorded as “D (<0.3)” and the response vs control in vivo at 10 mg/kg is less than 30%.
Taken in the same sequence, the figures for `N#Cc1cccc(C#N)c1-c1c(-c2cccc(-c3c(F)cc(C(=O)O)cc3F)c2)n(S(=O)(=O)c2ccc(C(F)F)cc2)c2ccc(F)cc12` [11/53] were less than 100 nM, “D (<0.3)” and less than 30%.
As to `N#Cc1cccc(C#N)c1-c1c(-c2cccc([C@H]3CC[C@H](C(=O)O)CC3)c2)n(S(=O)(=O)c2ccc(C(F)F)cc2)c2ccc(F)cc12` [11/62], in test [1], the EC50 was in the range of 100 to 1000 nM. Moreover, in test [2] (three oral doses of 10 mg/kg), the “Srebp1c suppr. compared to vehicle” value is given as “D (<0.3)” and the response vs control in vivo at 10 mg/kg was less than 30%.
Taken in the same sequence, the figures for `N#Cc1cccc(C#N)c1-c1c(-c2cccc(-c3ccc(C(=O)O)cc3Cl)c2)n(S(=O)(=O)C2CCC(F)(F)CC2)c2ccc(F)cc12` [11/63] were 100 to 1000 nM, “D (<0.3)” and 30 to 60%.
For `N#Cc1cccc(C#N)c1-c1c(-c2cccc(-c3cc(F)c(C(=O)O)cc3Cl)c2)n(S(=O)(=O)c2ccc(C(F)F)cc2)c2ccc(F)cc12` [11/65], in that order: less than 100 nM, “D (<0.3)” and less than 30%.
For `CS(=O)(=O)NC(=O)c1ccc(-c2cccc(-c3c(-c4c(C#N)cccc4C#N)c4cc(F)ccc4n3S(=O)(=O)c3ccc(C(F)F)cc3)c2)c(Cl)c1` [32/5], in that order: less than 100 nM, “C (0.3 to ≤0.6)” and 30 to 60%.
